These results are taken from patent US20260184663A1, “INDENE COMPOUNDS, PHARMACEUTICAL COMPOSITIONS THEREOF, AND THEIR THERAPEUTIC APPLICATIONS” (NucMito Pharmaceuticals co. Ltd., priority 2022, published 2026).

Holding throughout (format): cell-based
The test system of assay [1] is MDA-MB-231 (breast cancer). In words: Antiproliferative activity (CCK-8 cell viability), MDA-MB-231. The settings on record: Homo sapiens, 72 h, read-out: Antiproliferative activity in cancerous cells, MDA-MB-231 (inhibition of cell growth); for inhibition at 3.3 µM: Compound concentration: 3.3 μM; for inhibition at 10 µM: Compound concentration: 10 μM; for inhibition at 30 µM: Compound concentration: 30 μM. The gist of the method: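 Growth inhibition of human MDA-MB-231 breast cancer cells was assessed with a Cell Counting Kit-8. Cells cultured in DMEM plus 10% FBS were seeded at 2,000-5,000 cells/well, treated after attachment, and kept 72 h at 37° C. CCK-8 solution (10 μL) was added for 4 h, and absorbance at 450 nm was compared with DMSO-treated controls.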

The subject of assay [2] is HepG2 (liver cancer). In words: Antiproliferative activity (CCK-8 cell viability), HepG2. The conditions noted are these: Homo sapiens, 72 h, read-out: Antiproliferative activity in cancerous cells, HepG2 (inhibition of cell growth); for inhibition at 3.3 µM: Compound concentration: 3.3 μM; for inhibition at 10 µM: Compound concentration: 10 μM; for inhibition at 30 µM: Compound concentration: 30 μM. In a few lines: (§1)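 Growth inhibition graded in bands from percent viability against DMSO vehicle, read as CCK-8 absorbance at 450 nm. Compound tested at 3.3, 10 or 30 μM for 72 h, 37 °C; media contained 10% FBS: DMEM for HepG2/SW480, MEM for HeLa, F-12K for A549.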

The test system of assay [3] is SW480 (colon cancer). Put plainly: Antiproliferative activity (CCK-8 cell viability), SW480. The settings on record: Homo sapiens, 72 h, read-out: Antiproliferative activity in cancerous cells, SW480 (inhibition of cell growth); for inhibition at 3.3 µM: Compound concentration: 3.3 μM; for inhibition at 10 µM: Compound concentration: 10 μM; for inhibition at 30 µM: Compound concentration: 30 μM. The gist of the method: as §1

Assay [4] deals with B16F10 (malignant melanoma). In words: Antiproliferative activity (CCK-8 cell viability), B16F10. The conditions noted are these: Mus musculus, 72 h, read-out: Antiproliferative activity in cancerous cells, B16F10 (inhibition of cell growth); for inhibition at 3.3 µM: B16-F10, Compound concentration: 3.3 μM; for inhibition at 10 µM: B16-F10, Compound concentration: 10 μM; for inhibition at 30 µM: B16-F10, Compound concentration: 30 μM. In a few lines:
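Cell growth inhibition was measured in B16F10 malignant melanoma cells with a Cell Counting Kit-8 viability assay. Cells were maintained in DMEM plus 10% fetal bovine serum, seeded at 2,000-5,000 cells/well in 96-well plates, and treated for 72 h at 37° C. Viability was expressed relative to DMSO-treated vehicle control wells.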

Assay [5] has as its system A431 (epidermoid carcinoma). Put plainly: Antiproliferative activity (CCK-8 cell viability), A431. The conditions noted are these: Homo sapiens, 72 h, read-out: Antiproliferative activity in cancerous cells, A431 (inhibition of cell growth); for inhibition at 3.3 µM: A-431, Compound concentration: 3.3 μM; for inhibition at 10 µM: A-431, Compound concentration: 10 μM; for inhibition at 30 µM: A-431, Compound concentration: 30 μM. The gist of the method:
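This growth inhibition assay used A431 cells maintained in Dulbecco's modified Eagle's medium plus 10% fetal bovine serum. Cells were seeded in 96-well plates, treated with compound for 72 h at 37° C., and then given 10 μL CCK-8 solution. After a further 4 h, absorbance was read at 450 nm.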

Assay [6] has as its system A549 (lung adenocarcinoma). In words: Antiproliferative activity (CCK-8 cell viability), A549. The settings on record: Homo sapiens, 72 h, read-out: Antiproliferative activity in cancerous cells, A549 (inhibition of cell growth); for inhibition at 3.3 µM: Compound concentration: 3.3 μM; for inhibition at 10 µM: Compound concentration: 10 μM; for inhibition at 30 µM: Compound concentration: 30 μM. In a few lines: as §1

The subject of assay [7] is HeLa (cervical cancer). In words: Antiproliferative activity (CCK-8 cell viability), HeLa. The settings on record: Homo sapiens, 72 h, read-out: Antiproliferative activity in cancerous cells, HELA (inhibition of cell growth); for inhibition at 3.3 µM: Compound concentration: 3.3 μM; for inhibition at 10 µM: Compound concentration: 10 μM; for inhibition at 30 µM: Compound concentration: 30 μM. The gist of the method:
as §1

As for `CC1=C(CC(=O)O)c2cc(Br)ccc2/C1=C/c1ccc(Oc2ccc(Cl)cc2)cc1` [E27, (E)-2-(5-Bromo-1-(4-(4-chlorophenoxy)benzylidene)-2-methyl-1H-inden-3-yl)acetic acid], the inhibition at 3.3 µM is not below 50% in assay [1]; less than 30% in assay [2]; less than 30% in assay [3]; not below 50% in assay [4]; not below 50% in assay [5]; less than 30% in assay [6]. In assay [7], the inhibition at 3.3 µM was not below 50%. Further, the inhibition at 10 µM in assay [1] was not below 50%; in assay [2] it was not below 50%; in assay [3], 30 to 50%; in assay [4] it was not below 50%; in assay [5], not below 50%; in assay [6], not below 50%. Moreover, in assay [7], the inhibition at 10 µM is not below 50%. Also, the inhibition at 30 µM in assay [1], in assay [2], in assay [3], in assay [4], in assay [5] and in assay [6] was not below 50% in each case. In addition, the inhibition at 30 µM in assay [7] is not below 50%.
In the case of `CC1=C(CC(=O)O)c2cc(F)ccc2/C1=C\c1ccc(COc2ccc(F)cc2)cc1Br` [B74, (Z)-2-(1-(2-Bromo-4-((4-fluorophenoxy)methyl)benzylidene)-5-fluoro-2-methyl-1H-inden-3-yl)acetic acid], the inhibition at 3.3 µM in assay [1] was less than 30%; in assay [2], not below 50%; in assay [3] it was less than 30%; in assay [4], 30 to 50%; in assay [5] it was less than 30%; in assay [6], 30 to 50%. The inhibition at 3.3 µM in assay [7] is less than 30%. The inhibition at 10 µM in assay [1] is 30 to 50%; in assay [2], not below 50%; in assay [3] it was less than 30%; in assay [4], not below 50%; in assay [5], 30 to 50%; in assay [6], 30 to 50%. Moreover, the inhibition at 10 µM in assay [7] was not below 50%.
Take `CCc1ccc2c(c1)C(CC(=O)O)=C(C)/C2=C/c1ccc(COc2ccc(Cl)cc2)cc1` [B56, (Z)-2-(1-(4-((4-Chlorophenoxy)methyl)benzylidene)-5-ethyl-2-methyl-1H-inden-3-yl)acetic acid]: the inhibition at 3.3 µM in assay [1] is less than 30%; in assay [2] it was not below 50%; in assay [3], 30 to 50%; in assay [4], 30 to 50%; in assay [5], not below 50%; in assay [6], 30 to 50%. For the same molecule, in assay [7], the inhibition at 3.3 µM was not below 50%. For the same molecule, the inhibition at 10 µM was 30 to 50% in assay [1]; not below 50% in assay [2]; not below 50% in assay [3]; not below 50% in assay [4]; not below 50% in assay [5]; not below 50% in assay [6]. In addition, the inhibition at 10 µM in assay [7] was not below 50%.
Consider `CCc1ccc2c(c1)C(CC(=O)O)=C(C)/C2=C/c1ccc(COCc2ccc(F)cc2)cc1` [B107, (Z)-2-(5-Ethyl-1-(4-(((4-fluorobenzyl)oxy)methyl)benzylidene)-2-methyl-1H-inden-3-yl)acetic acid], for which the inhibition at 3.3 µM in assay [1] is less than 30%; in assay [2], less than 30%; in assay [3], not below 50%; in assay [4], less than 30%; in assay [5] it was not below 50%; in assay [6], 30 to 50%. Besides, in assay [7], the inhibition at 3.3 µM is less than 30%. Besides, the inhibition at 10 µM is 30 to 50% in assay [1]; less than 30% in assay [2]; not below 50% in assay [3]; 30 to 50% in assay [4]; 30 to 50% in assay [5]; not below 50% in assay [6]. Moreover, the inhibition at 10 µM in assay [7] is not below 50%.
`COc1ccc(S(=O)(=O)Cc2ccc(/C=C3/C(C)=C(CC(=O)O)c4cc(F)ccc43)cc2)cc1` [B46, (Z)-2-(5-Fluoro-1-(4-(((4-methoxyphenyl)sulfonyl)methyl)benzylidene)-2-methyl-1H-inden-3-yl)acetic acid]: the inhibition at 3.3 µM in assay [1] was less than 30%; in assay [2] it was 30 to 50%; in assay [3] it was 30 to 50%; in assay [4] it was less than 30%; in assay [5], 30 to 50%; in assay [6], less than 30%. In addition, the inhibition at 3.3 µM in assay [7] is less than 30%. Further, the inhibition at 10 µM is 30 to 50% in assay [1]; 30 to 50% in assay [2]; 30 to 50% in assay [3]; not below 50% in assay [4]; not below 50% in assay [5]; less than 30% in assay [6]. In addition, in assay [7], the inhibition at 10 µM is not below 50%.
`CC1=C(CC(=O)O)c2cc(F)ccc2/C1=C\c1cccc(Oc2cccc(Cl)c2)c1` [C101, (Z)-2-(1-(3-(3-Chlorophenoxy)benzylidene)-5-fluoro-2-methyl-1H-inden-3-yl)acetic acid]: the inhibition at 3.3 µM in assay [1] is less than 30%; in assay [2] it was less than 30%; in assay [3], less than 30%; in assay [4], not below 50%; in assay [5], 30 to 50%; in assay [6], less than 30%. The inhibition at 3.3 µM in assay [7] is less than 30%. Also, the inhibition at 10 µM in assay [1] was less than 30%; in assay [2], not below 50%; in assay [3], 30 to 50%; in assay [4], not below 50%; in assay [5], not below 50%; in assay [6] it was less than 30%. Also, the inhibition at 10 µM in assay [7] was 30 to 50%.
For the molecule `CC1=C(CC(=O)O)c2cc(Cl)ccc2/C1=C/c1ccc(Oc2ccc(F)c(F)c2)cc1` [E29, (E)-2-(5-Chloro-1-(4-(3,4-difluorophenoxy)benzylidene)-2-methyl-1H-inden-3-yl)acetic acid], the inhibition at 3.3 µM in assay [1] is not below 50%; in assay [2], less than 30%; in assay [3], less than 30%; in assay [4] it was not below 50%; in assay [5], less than 30%; in assay [6], less than 30%. Moreover, the inhibition at 3.3 µM in assay [7] was not below 50%. Moreover, the inhibition at 10 µM in assay [1] is not below 50%; in assay [2], not below 50%; in assay [3], not below 50%; in assay [4], not below 50%; in assay [5], 30 to 50%; in assay [6], not below 50%. For the same molecule, the inhibition at 10 µM in assay [7] is not below 50%. In addition, the inhibition at 30 µM in assay [1], in assay [2], in assay [3], in assay [4], in assay [5] and in assay [6] was not below 50% in each case. For the same molecule, the inhibition at 30 µM in assay [7] is not below 50%.
